“And” between values parts separate entries of the source, which are not always exact repeats. Identical values can stand only once. Toxic doses and inconclusive results are not listed. The calls were made as follows: active = survival T/C of 150% or more; inactive = T/C below 125% in these data.
Test system: AK4 lymphoid leukemia ip, C3AKF1 mice, survival
Test: NCI In Vivo Anticancer Drug Screen. Data for tumor model AK4 Lymphoid Leukemia (intraperitoneal) in C3AKF1 (CHKRF1) mice
Conditions: endpoint: median survival time, higher = longer survival
Protocol: The antitumor activity of compounds was measured in mice bearing transplantable tumors. Survival or tumor size were measured and the results are expressed as the measurement made in the treated group (T) divided by the measurement made in the vehicle treated control group (C). The tumor model used in this assay is AK4 Lymphoid Leukemia (intraperitoneal) in C3AKF1 (CHKRF1) mice

[1] = dose: 250.0 micrograms/kg/injection, schedule: Q01DX010 (ip), vehicle: saline
[2] = dose: 12.5 mg/kg/injection, schedule: Q01DX010 (sc), vehicle: steriod suspending solution
[3] = dose: 25.0 mg/kg/injection, schedule: Q01DX010 (sc), vehicle: steriod suspending solution
[4] = dose: 50.0 mg/kg/injection, schedule: Q01DX010 (sc), vehicle: steriod suspending solution
[5] = dose: 100.0 mg/kg/injection, schedule: Q01DX010 (sc), vehicle: steriod suspending solution
[6] = dose: 62.5 mg/kg/injection, schedule: Q01DX010 (ip), vehicle: saline
[7] = dose: 3.13 mg/kg/injection, schedule: Q01DX010 (ip), vehicle: saline
[8] = dose: 6.25 mg/kg/injection, schedule: Q01DX010 (ip), vehicle: saline
[9] = dose: 12.5 mg/kg/injection, schedule: Q01DX010 (ip), vehicle: saline
[10] = dose: 5.0 mg/kg/injection, schedule: Q01DX010 (ip), vehicle: saline
[11] = dose: 10.0 mg/kg/injection, schedule: Q01DX010 (ip), vehicle: saline
[12] = dose: 20.0 mg/kg/injection, schedule: Q01DX010 (ip), vehicle: saline
[13] = dose: 40.0 mg/kg/injection, schedule: Q01DX010 (ip), vehicle: saline
[14] = dose: 2.0 mg/kg/injection, schedule: Q01DX010 (ip), vehicle: saline
[15] = dose: 4.0 mg/kg/injection, schedule: Q01DX010 (ip), vehicle: saline
[16] = dose: 0.25 mg/kg/injection, schedule: Q01DX010 (ip), vehicle: saline
[17] = dose: 0.5 mg/kg/injection, schedule: Q01DX010 (ip), vehicle: saline
[18] = dose: 1.0 mg/kg/injection, schedule: Q01DX010 (ip), vehicle: saline
[19] = dose: 100.0 mg/kg/injection, schedule: Q01DX010 (ip), vehicle: saline
[20] = dose: 200.0 mg/kg/injection, schedule: Q01DX010 (ip), vehicle: saline
[21] = dose: 25.0 mg/kg/injection, schedule: Q01DX010 (ip), vehicle: saline
[22] = dose: 62.5 micrograms/kg/injection, schedule: Q01DX010 (ip), vehicle: saline

Measured: T/C

O[C@H](CN1CC1)[C@@H](O)CN1CC1
inactive: dose: 1000.0 micrograms/kg/injection, schedule: Q01DX010 (ip), vehicle: saline 105 % of control
active: [1] 164 % of control

CC(=O)O[C@]1(C(C)=O)CC[C@H]2[C@@H]3C[C@H](C)C4=CC(=O)C=C[C@]4(C)[C@@]3(F)[C@@H](O)C[C@@]21C
inactive: [2] 100 % of control | [3] 100 % of control | [4] 111 % of control | [5] 88 % of control and 100 % of control

CN[C@H]1CCc2cc(OC)c(OC)c(OC)c2-c2ccc(OC)c(=O)cc21
inactive: dose: 0.63 mg/kg/injection, schedule: Q01DX010 (ip), vehicle: other 95 % of control and 100 % of control | dose: 1.25 mg/kg/injection, schedule: Q01DX010 (ip), vehicle: other 95 % of control and 100 % of control | dose: 2.5 mg/kg/injection, schedule: Q01DX010 (ip), vehicle: other 90 % of control and 100 % of control | dose: 5.0 mg/kg/injection, schedule: Q01DX010 (ip), vehicle: other 100 % of control and 104 % of control

CN(C)[C@@H]1C(=O)C(C(N)=O)=C(O)[C@@]2(O)C(=O)C3=C(O)c4c(O)cccc4C[C@H]3C[C@@H]12
inactive: dose: 7.5 mg/kg/injection, schedule: Q01DX010 (ip), vehicle: saline 100 % of control | dose: 15.0 mg/kg/injection, schedule: Q01DX010 (ip), vehicle: saline 100 % of control and 105 % of control | dose: 30.0 mg/kg/injection, schedule: Q01DX010 (ip), vehicle: saline 100 % of control | dose: 60.0 mg/kg/injection, schedule: Q01DX010 (ip), vehicle: saline 94 % of control

O=CN(O)CC(=O)O
inactive: [6] 100 % of control | dose: 500.0 mg/kg/injection, schedule: Q01DX010 (ip), vehicle: saline 90 % of control

COc1ccc2c(c1OC)C(=O)O[C@@H]2[C@H]1c2c(cc3c(c2OC)OCO3)CCN1C
inactive: dose: 0.9 mg/kg/injection, schedule: Q01DX010 (ip), vehicle: saline 100 % of control | dose: 1.9 mg/kg/injection, schedule: Q01DX010 (ip), vehicle: saline 87 % of control | dose: 3.9 mg/kg/injection, schedule: Q01DX010 (ip), vehicle: saline 87 % of control | dose: 7.8 mg/kg/injection, schedule: Q01DX010 (ip), vehicle: saline 111 % of control and 87 % of control | dose: 15.6 mg/kg/injection, schedule: Q01DX010 (ip), vehicle: saline 100 % of control | dose: 31.3 mg/kg/injection, schedule: Q01DX010 (ip), vehicle: saline 100 % of control | [6] 94 % of control | dose: 125.0 mg/kg/injection, schedule: Q01DX010 (ip), vehicle: saline 88 % of control | dose: 250.0 mg/kg/injection, schedule: Q01DX010 (ip), vehicle: saline 88 % of control

O=C(O)CCCc1ccc(N(CCCl)CCCl)cc1
inactive: [7] 100 % of control | [8] 113 % of control and 120 % of control | [9] 95 % of control

Cn1c(N)nc2nc[nH]c2c1=S
inactive: [10] 100 % of control | [11] 100 % of control and 122 % of control | [12] 88 % of control and 105 % of control | [13] 88 % of control and 100 % of control | dose: 80.0 mg/kg/injection, schedule: Q01DX010 (ip), vehicle: saline 111 % of control

C[C@]12C=CC(=O)C=C1CC[C@@H]1[C@@H]2C(=O)C[C@@]2(C)[C@H]1CC[C@]2(O)C(=O)CO
inactive: dose: 6.25 mg/kg/injection, schedule: Q01DX010 (sc), vehicle: steriod suspending solution 100 % of control | [2] 100 % of control and 87 % of control | dose: 12.5 mg/kg/injection, schedule: Q01DX Z (sc), vehicle: steriod suspending solution 93 % of control | [3] 100 % of control and 87 % of control | dose: 25.0 mg/kg/injection, schedule: Q01DX Z (sc), vehicle: steriod suspending solution 93 % of control | [4] 90 % of control and 100 % of control (2×) | dose: 50.0 mg/kg/injection, schedule: Q01DX Z (sc), vehicle: steriod suspending solution 96 % of control and 100 % of control | [5] 90 % of control and 118 % of control | dose: 100.0 mg/kg/injection, schedule: Q01DX Z (sc), vehicle: steriod suspending solution 96 % of control | dose: 200.0 mg/kg/injection, schedule: Q01DX010 (sc), vehicle: steriod suspending solution 105 % of control and 118 % of control | dose: 200.0 mg/kg/injection, schedule: Q01DX Z (sc), vehicle: steriod suspending solution 96 % of control and 120 % of control

Nc1nc(=S)c2ncn(C3OC(CO)C(O)C3O)c2[nH]1 (centres undefined)
inactive: [14] 117 % of control | [15] 111 % of control | dose: 8.0 mg/kg/injection, schedule: Q01DX010 (ip), vehicle: saline 117 % of control | dose: 16.0 mg/kg/injection, schedule: Q01DX010 (ip), vehicle: saline 94 % of control

C1CN1c1nc(N2CC2)nc(N2CC2)n1
active: [17] 150 % of control
inactive: [16] 116 % of control | [18] 111 % of control

C#CCN(C)Cc1ccccc1
inactive: dose: 50.0 mg/kg/injection, schedule: Q01DX010 (ip), vehicle: saline 88 % of control | [19] 88 % of control | [20] 88 % of control

NC(Cc1c[nH]c2ccc(N(CCCl)CCCl)cc12)C(=O)O (centres undefined)
active: [14] 156 % of control | [15] 175 % of control

Cc1cc2nc3c(=O)[nH]c(=O)nc-3n(CC(O)C(O)C(O)C(O)CO)c2cc1C (centres undefined)
inactive: [7] 105 % of control | [8] 111 % of control | [9] 105 % of control | [21] 100 % of control and 105 % of control | [20] 88 % of control

CS(=O)(=O)OCCC(=O)N1CCN(C(=O)CCOS(C)(=O)=O)CC1
inactive: [9] 94 % of control and 116 % of control | [21] 116 % of control | [19] 122 % of control

Oc1cc(CN(CCCl)CCCl)c(O)cc1CN(CCCl)CCCl
inactive: [11] 100 % of control

CS(=O)(=O)OCCN(CCOS(C)(=O)=O)c1ccc(N=O)cc1
inactive: [17] 111 % of control | [18] 111 % of control | [14] 94 % of control | [15] 88 % of control | [22] 110 % of control | dose: 125.0 micrograms/kg/injection, schedule: Q01DX010 (ip), vehicle: saline 115 % of control | [1] 115 % of control | dose: 500.0 micrograms/kg/injection, schedule: Q01DX010 (ip), vehicle: saline 115 % of control

CN(N=O)C(N)=O
active: [11] 162 % of control | [12] 225 % of control
inactive: [13] 112 % of control

CC[C@]1(O)C[C@H]2CN(CCc3c([nH]c4ccccc34)[C@@](C(=O)OC)(c3cc4c(cc3OC)N(C=O)[C@H]3[C@@](O)(C(=O)OC)[C@H](OC(C)=O)[C@]5(CC)C=CCN6CC[C@]43[C@@H]65)C2)C1
inactive: dose: 0.03 mg/kg/injection, schedule: Q01DX010 (ip), vehicle: saline 100 % of control and 115 % of control | dose: 0.03 mg/kg/injection, schedule: Q01DX Z (ip), vehicle: saline 96 % of control and 106 % of control | dose: 0.06 mg/kg/injection, schedule: Q01DX010 (ip), vehicle: saline 90 % of control and 112 % of control | dose: 0.06 mg/kg/injection, schedule: Q01DX Z (ip), vehicle: saline 96 % of control and 106 % of control | dose: 0.12 mg/kg/injection, schedule: Q01DX Z (ip), vehicle: saline 102 % of control and 106 % of control | [16] 115 % of control | dose: 0.25 mg/kg/injection, schedule: Q01DX Z (ip), vehicle: saline 102 % of control and 120 % of control | [17] 93 % of control | [22] 112 % of control

S=P(N1CCOCC1)(N1CC1)N1CC1
inactive: dose: 2.5 mg/kg/injection, schedule: Q01DX010 (ip), vehicle: saline 94 % of control | [10] 105 % of control | [11] 100 % of control | [12] 94 % of control

CN(C)/N=N/c1nc[nH]c1C(N)=O
active: [19] 155 % of control and 166 % of control | [20] 177 % of control and 205 % of control

Nc1nc(N)c2nc(CNc3ccc(C(=O)NC(CCC(=O)O)C(=O)O)cc3)cnc2n1 (centres undefined)
active: dose: 0.1 mg/kg/injection, schedule: Q01DX010 (ip), vehicle: other 160 % of control and 215 % of control | dose: 0.2 mg/kg/injection, schedule: Q01DX010 (ip), vehicle: other 180 % of control and 300 % of control
inactive: dose: 0.05 mg/kg/injection, schedule: Q01DX010 (ip), vehicle: other 120 % of control

— PubChem BioAssay AID236 (DTP/NCI, 2004)
